Test results from ChEMBL document CHEMBL4052585 (J Med Chem, 2017).
≈ marks a conversion by molar mass, not a printed value.

What was measured:
[1] = target: T1, Mitogen-activated protein kinase kinase kinase 14 (Homo sapiens, UniProt Q99558); experiment: Inhibition of NIK (unknown origin) after 1 to 2 hrs by ADP-FP assay
[2] = target: PI3-kinase p110-delta/p85-alpha (Homo sapiens, UniProt O00329); experiment: Inhibition of N-terminal His6-tagged recombinant full-length human p110delta/untagged recombinant full length human p85alpha expressed in baculovirus infected Sf21 insect cells using PIP2:3PS lipid substrate after 120 mins by ADP-Glo assay
PI3-kinase p110-delta/p85-alpha, sequence (P27986 whole entry): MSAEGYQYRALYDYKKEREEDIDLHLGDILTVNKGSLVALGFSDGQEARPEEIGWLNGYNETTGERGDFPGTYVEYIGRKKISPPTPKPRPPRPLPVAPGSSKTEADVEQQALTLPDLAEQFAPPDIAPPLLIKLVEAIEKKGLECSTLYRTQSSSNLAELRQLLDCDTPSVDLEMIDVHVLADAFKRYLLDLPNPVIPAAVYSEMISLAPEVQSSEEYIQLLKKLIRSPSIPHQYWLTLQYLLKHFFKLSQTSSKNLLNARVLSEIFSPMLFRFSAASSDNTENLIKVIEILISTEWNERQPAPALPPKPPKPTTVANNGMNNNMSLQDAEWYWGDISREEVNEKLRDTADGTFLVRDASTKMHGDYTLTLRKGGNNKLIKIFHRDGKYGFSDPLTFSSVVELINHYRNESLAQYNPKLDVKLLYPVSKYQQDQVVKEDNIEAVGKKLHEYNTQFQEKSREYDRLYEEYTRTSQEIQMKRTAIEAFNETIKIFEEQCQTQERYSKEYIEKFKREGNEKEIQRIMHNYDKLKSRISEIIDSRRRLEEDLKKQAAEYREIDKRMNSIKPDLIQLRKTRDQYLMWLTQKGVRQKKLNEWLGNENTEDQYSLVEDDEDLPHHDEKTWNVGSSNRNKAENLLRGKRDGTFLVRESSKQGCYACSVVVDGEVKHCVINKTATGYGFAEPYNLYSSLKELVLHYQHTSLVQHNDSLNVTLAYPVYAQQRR
PI3-kinase p110-delta/p85-alpha, sequence (O00329 whole entry): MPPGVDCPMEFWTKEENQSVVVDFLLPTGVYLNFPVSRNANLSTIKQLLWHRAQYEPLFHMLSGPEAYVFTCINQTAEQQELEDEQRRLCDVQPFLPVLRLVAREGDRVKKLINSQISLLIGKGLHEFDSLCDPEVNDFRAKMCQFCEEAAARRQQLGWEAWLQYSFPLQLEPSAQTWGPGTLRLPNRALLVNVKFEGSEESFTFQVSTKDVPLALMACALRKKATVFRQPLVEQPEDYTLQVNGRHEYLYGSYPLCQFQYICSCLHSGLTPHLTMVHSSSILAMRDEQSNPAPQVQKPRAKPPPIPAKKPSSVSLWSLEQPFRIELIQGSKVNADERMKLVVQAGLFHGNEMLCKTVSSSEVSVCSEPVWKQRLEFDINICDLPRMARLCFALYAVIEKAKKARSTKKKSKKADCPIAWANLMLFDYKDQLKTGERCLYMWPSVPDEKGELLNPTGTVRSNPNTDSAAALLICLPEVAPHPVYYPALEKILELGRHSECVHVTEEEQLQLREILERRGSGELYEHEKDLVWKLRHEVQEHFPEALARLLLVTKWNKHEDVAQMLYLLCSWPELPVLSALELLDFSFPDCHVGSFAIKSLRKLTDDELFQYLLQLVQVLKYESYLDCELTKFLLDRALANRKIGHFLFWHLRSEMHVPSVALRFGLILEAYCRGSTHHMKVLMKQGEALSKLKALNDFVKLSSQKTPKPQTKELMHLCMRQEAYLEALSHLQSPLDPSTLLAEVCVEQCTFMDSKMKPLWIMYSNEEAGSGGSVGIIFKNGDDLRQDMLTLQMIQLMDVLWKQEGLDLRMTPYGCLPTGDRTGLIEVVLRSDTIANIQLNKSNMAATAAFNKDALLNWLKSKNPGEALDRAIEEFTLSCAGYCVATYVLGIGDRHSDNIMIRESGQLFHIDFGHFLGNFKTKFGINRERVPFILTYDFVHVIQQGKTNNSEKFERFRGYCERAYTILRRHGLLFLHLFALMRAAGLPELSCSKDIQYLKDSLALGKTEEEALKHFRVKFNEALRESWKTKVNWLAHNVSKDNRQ

physchem = details: buffer, pH 7.4
[3] = Volume of distribution in cynomolgus monkey; type: ADME, Macaca fascicularis; details: in vivo
[4] = Plasma clearance in Sprague-Dawley rat; type: ADME
[5] = Volume of distribution in Sprague-Dawley rat; type: ADME; details: in vivo
[6] = Thermodynamic solubility of compound at pH 7.4; type: physicochemical; details: buffer, read-out: Therm_solubility
[7] = Apparent permeability across MDCK cells at 100 uM; type: ADME, cell-based, Canis lupus familiaris; details: dog
[8] = target: T1, Mitogen-activated protein kinase kinase kinase 14; experiment: Inhibition of NIK in human HeLa cells assessed as decrease in antilymphotoxin-beta receptor antibody-stimulated p52 translocation from cytoplasm to nucleus after 5 hrs; type: cell-based
[9] = Protein binding in human plasma; type: ADME, cell-free; details: read-out: PPB (converted)
[10] = target: T1, Mitogen-activated protein kinase kinase kinase 14; experiment: Inhibition of NIK (unknown origin) expressed in HEK293 cells assessed as decrease in NFkappaB signal after 24 hrs by dual glo luciferase reporter gene assay; type: cell-based
[11] = Plasma clearance in cynomolgus monkey; type: ADME, Macaca fascicularis
HEK293 = experiment: Cytotoxicity against HEK293 cells assessed as effect on cell viability after 24 hrs by HSV-TK reporter assay; type: cell-based; details: Homo sapiens, HEK293, 24 h
[12] = Oral bioavailability in Sprague-Dawley rat at 5 mg/kg; type: ADME, organism-based; details: in vivo
[13] = Volume of distribution in beagle dog; type: ADME, Canis lupus familiaris; details: in vivo
[14] = Plasma clearance in beagle dog; type: ADME, Canis lupus familiaris
[15] = Oral bioavailability in beagle dog at 5 mg/kg; type: ADME, organism-based, Canis lupus familiaris; details: in vivo
[16] = target: T1, Mitogen-activated protein kinase kinase kinase 14; experiment: Binding affinity to NIK (unknown origin) by SPR method

T1 sequence (Q99558 whole entry): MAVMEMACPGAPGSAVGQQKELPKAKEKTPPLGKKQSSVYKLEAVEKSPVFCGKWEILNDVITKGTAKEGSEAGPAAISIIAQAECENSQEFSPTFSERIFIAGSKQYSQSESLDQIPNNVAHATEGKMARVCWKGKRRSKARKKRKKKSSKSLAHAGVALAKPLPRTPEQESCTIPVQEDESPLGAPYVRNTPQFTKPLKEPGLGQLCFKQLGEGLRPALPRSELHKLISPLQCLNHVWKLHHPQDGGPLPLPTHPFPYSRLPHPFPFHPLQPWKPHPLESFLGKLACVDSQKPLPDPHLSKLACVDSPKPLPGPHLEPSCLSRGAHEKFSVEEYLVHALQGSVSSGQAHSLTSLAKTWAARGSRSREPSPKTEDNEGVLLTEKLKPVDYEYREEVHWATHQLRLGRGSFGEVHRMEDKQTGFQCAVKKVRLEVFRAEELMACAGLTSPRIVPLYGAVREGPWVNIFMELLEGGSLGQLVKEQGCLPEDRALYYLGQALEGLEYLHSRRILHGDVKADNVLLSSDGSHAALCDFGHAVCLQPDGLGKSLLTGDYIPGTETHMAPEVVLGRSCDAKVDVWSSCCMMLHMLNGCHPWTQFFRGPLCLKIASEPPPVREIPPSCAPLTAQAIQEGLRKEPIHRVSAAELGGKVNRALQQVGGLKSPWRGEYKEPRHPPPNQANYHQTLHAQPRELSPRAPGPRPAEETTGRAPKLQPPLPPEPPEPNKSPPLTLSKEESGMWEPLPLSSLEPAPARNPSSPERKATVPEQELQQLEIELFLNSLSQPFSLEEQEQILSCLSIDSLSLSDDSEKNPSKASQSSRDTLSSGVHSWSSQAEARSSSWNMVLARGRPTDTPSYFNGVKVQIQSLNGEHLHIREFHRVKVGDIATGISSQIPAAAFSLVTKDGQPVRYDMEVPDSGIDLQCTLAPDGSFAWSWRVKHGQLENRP

Compound	Ki [1] [nM]	Ki [2] [nM]	logD (physchem)	further results
CC(C)(O)C#Cc1cc2c(cc1F)C1CC(C1)n1cc(C(N)=O)nc1-2	2.9	> 1000		
CC(C)(O)C#Cc1ccc2c(c1)-c1nc(C(N)=O)sc1CCO2	28	216	2.4	
CNC(=O)c1c(C(N)=O)nc2n1CCOc1cc(F)c(C#CC(C)(C)O)cc1-2	2	> 1000	2.5	
NC(=O)c1ccc2c(n1)-c1sccc1CCO2	1280		2.5	
NC(=O)c1cn2c(n1)-c1cc(C#CC3(O)CCC3)c(F)cc1OCC2	20.2		3.4	
CC(O)(C#Cc1cc2c(cc1F)OCCn1cc(C(N)=O)nc1-2)c1cccnn1 (racemic)	3.2		1.4	
CN(C)C(=O)c1c(C(N)=O)nc2n1CCOc1cc(F)c(C#CC(C)(C)O)cc1-2		> 1000	1.4	
CC(C)(O)C#Cc1cc2c(cc1F)OCCn1c-2nc(C(N)=O)c1Cc1ccccc1F	7.5	> 1000	3.4	
CC(O)(C#Cc1cc2c(cc1F)OCCn1cc(C(N)=O)nc1-2)c1nccs1 (racemic)	1.5		2.4	
Cc1c(C(N)=O)nc2n1CCOc1cc(F)c(C#CC(C)(C)O)cc1-2	35.5	> 1000	2.2	
Cc1cc([C@](C)(O)C#Cc2cc3c(cc2F)C2CC(C2)n2cc(C(N)=O)nc2-3)no1	0.4	> 1000	3.3	Vd [3]: 1.9 L/kg; clearance [4]: 24 mL/min/kg; Vd [5]: 0.84 L/kg; solubility thermodynamic [6]: 32 µg/mL (≈ 78.7 µM); Papp at 100 µM [7]: 10.1 ×10⁻⁶ cm/s; IC50 [8]: 199 nM; fraction unbound [9]: 0.09; IC50 [10]: 102 nM; clearance [11]: 13 mL/min/kg; IC50 (HEK293): > 20000 nM; bioavailability [12]: 27%
CNC(=O)c1c(C(N)=O)nc2n1CCOc1ccc(C#C[C@@](C)(O)c3cc(C)on3)cc1-2	0.47	> 1000	3	Vd [3]: 0.9 L/kg; clearance [4]: 7 mL/min/kg; Vd [5]: 1.4 L/kg; solubility thermodynamic [6]: 9 µg/mL (≈ 20.7 µM); Vd [13]: 1.1 L/kg; Papp at 100 µM [7]: 7.5 ×10⁻⁶ cm/s; clearance [14]: 7 mL/min/kg; IC50 [8]: 67 to 87 nM; fraction unbound [9]: 0.06; IC50 [10]: 40 nM; clearance [11]: 21 mL/min/kg; IC50 (HEK293): 13000 nM; bioavailability [12]: 51%; bioavailability [15]: 140%
CN1CCCC(O)(C#Cc2cc3c(cc2F)OCCn2cc(C(N)=O)nc2-3)C1=O (racemic)	3		1.5	
CN1CC[C@](O)(C#Cc2cc3c(cc2F)OCCn2cc(C(N)=O)nc2-3)C1=O			0.94	
Cn1nccc1Cc1c(C(N)=O)nc2n1CCOc1cc(F)c(C#CC(C)(C)O)cc1-2	9.9	> 1000		
CC(C)(O)C#Cc1ccc2c(c1)-c1nc(C(N)=O)sc1C(F)(F)CO2	40	> 1000		

Compound	Ki [1] [nM]	Ki [2] [nM]	logD (physchem)	further results
CC(O)(C#Cc1cc2c(cc1F)OCCn1cc(C(N)=O)nc1-2)CF (racemic)	8.7			
CC(C)(O)C#Cc1ccc2c(c1)-c1nc(C(N)=O)cn1C1CC2C1	20	> 1000		
CC(C)(O)C#Cc1cc2c(cc1F)OCCn1c-2nc(C(N)=O)c1C#N	201	> 1000	1.6	
CC(C)(O)C#Cc1ccc2c(c1)-c1nc(C(N)=O)sc1C(O)CO2 (racemic)	101	> 1000		
CN1CC[C@@](O)(C#Cc2cc3c(cc2F)OCCn2cc(C(N)=O)nc2-3)C1=O			0.74	
CC(C)(O)C#Cc1cc2c(cc1F)OCCn1cc(C(N)=O)nc1-2	36		1.7	
C[C@@H]1Cn2cc(C(N)=O)nc2-c2cc(C#CC(C)(C)O)ccc2O1		> 1000		
CC(C)(O)C#Cc1cc2c(cc1F)OCCn1c-2nc(C(N)=O)c1-c1cn[nH]c1	7	> 1000	1.8	
C[C@H]1Cn2cc(C(N)=O)nc2-c2cc(C#CC(C)(C)O)ccc2O1		> 1000		
CC(C)(O)C#Cc1ccc2c(c1)-c1nc(C(N)=O)cn1CCO2	310	320	1.4	
CC(C)(O)C#Cc1cc2c(cc1F)OCCn1c-2nc(C(N)=O)c1C1CC1	41	> 1000	1.9	
CN(C)C(=O)C(C)(O)C#Cc1cc2c(cc1F)OCCn1cc(C(N)=O)nc1-2 (centres undefined)	986		1.4	
Cc1cc([C@](C)(O)C#Cc2cc3c(cc2F)OCCn2cc(C(N)=O)nc2-3)no1		47	1.1	IC50 [8]: 607 nM; IC50 [10]: 156 nM; IC50 (HEK293): > 20000 nM
NC(=O)c1cccn1Cc1ccccc1Cl				Kd [16]: 69000 nM
NC(=O)c1cn2c(n1)-c1cc(C#CC3(O)COC3)c(F)cc1OCC2	4280		1.2	
